Tests used:
Ramos cells = experiment: Apoptosis assay, AnnexinV-FITC/propidium iodide FCM; format: cell-based, Human; conditions: treatment for 18 hours
Protocol: Figure 1 The chemical structure of SKLB-850 and its anti-tumor effects in vitro (A) The chemical structure of SKLB-850. (B and C) Apoptosis of Ramos cells induced by SKLB-850. Cells were treated by vehicle, R788 or indicated concentrations of compounds. After 18 hours, Cell were harvested and stained with AnnexinV-FITC and propidium iodide, then the apoptosis cells were analyzed by FCM. (D and E) Apoptosis of HBL-1 cells induced by SKLB-850. Cells were treated by vehicle, R788 or indicated concentrations of compounds. After 24 hours, Cell were harvested and stained with AnnexinV-FITC and propidium iodide, then the apoptosis cells were analyzed by FCM. […] Columns, mean; bars, SD. ^##P<0.01, or ^#P<0.05, SKLB-850 group versus vehicle group. […]
The ability of SKLB-850 to induce apoptosis of BCL cells was analyzed by FCM. […]
Flow cytometry (FCM) assays were performed to investigate the apoptosis of Ramos and HBL-1 cells induced by SKLB-850. […] Cell apoptosis was analyzed with a flow cytometer (BD FACSCalibur, BD, USA).

[1] = tested on: Syk, Src/FAK, JAK2/STAT3 and NF-κB p65 phosphorylation in Ramos tumor tissues; experiment: Immunohistochemistry of phospho-proteins in tumor tissues from the Ramos tumor model; format: in vivo, NOD/SCID mice
Protocol: To understand the mechanism of antitumor activities in vivo, pivotal protein activities of Syk/ERK, Src/FAK and JAK2/STAT3 signaling pathways were detected by Western blot analysis. […] Immunohistochemistry assays were performed using tumor tissues isolated from the Ramos tumor model at the end of treatment.
Paraffin sections from each group were stained with hematoxylineosin (H&E). For immunohistochemistry studies, tumor tissues in the Ramos model were performed and the following antibodies were used: phospho-Src (Cell Signaling Technology, 1:100), phospho-FAK (Cell Signaling Technology, 1:100), phospho-Stat3 (Cell Signaling Technology, 1:100), NF-κB p-65(Cell Signaling Technology, 1:100) and phospho-Syk (Cell Signaling Technology, 1:100). Additionally, Rat anti-mouse CD31 antibody (BD Biosciences, USA) and anti-Ki67 antibody (Gene Tech) were used to determine vessel density and cell proliferation following the manufacturer’s protocol, respectively. A DAKO polymer secondary antibody system (Dako Envision 1K4007) was used for secondary detection. Images were captured using an Olympus digital camera.

| Structure (SMILES) | percentages of apoptotic cells (in words) (Ramos cells) | phosphorylation of NF-κB p65 (in words) ([1]; tumor tissues from the Ramos tumor model) | phosphorylations of Syk, Src/FAK and JAK2/STAT3 (in words) ([1]; tumor tissues from the Ramos tumor model at the end of treatment) |
| --- | --- | --- | --- |
| CN1CCN(c2ccc(Nc3ncc(F)c(Nc4ccc(Cl)cc4C(N)=O)n3)cc2)CC1 [SKLB-850, 5-chloro-2-((5-fluoro-2-((4-(4-methylpiperazin-1-yl)phenyl)amino)pyrimidin-4-yl)amino) benzamide] | dose-dependently increased | inhibited | inhibited |
| COc1cc(Nc2ncc(F)c(Nc3ccc4c(n3)N(COP(=O)(O)O)C(=O)C(C)(C)O4)n2)cc(OC)c1OC [R788, reference compound] | induced apoptosis but obviously much weaker |  |  |
